Like-named read-outs stand apart in the source and are kept apart here.
What was measured:
[1] = target: SARS-CoV-2 main protease (Mpro) (Severe acute respiratory syndrome coronavirus 2, UniProt P0DTD1); assay: SARS-CoV-2 Mpro FRET enzymatic assay; assay type: biochemical
SARS-CoV-2 Mpro = SARS-CoV-2 Mpro (Severe acute respiratory syndrome coronavirus 2, UniProt P0DTD1); assay: Mpro enzyme kinetics, Morrison plot Ki determination; assay type: biochemical
[2] = system: SARS-CoV-2 (isolate USA WA1/2020); assay type: cell-based; conditions: read-out: EC50 (antiviral); Calu-3 cells, MOI 0.5, 48 hours

Row | Compound | IC50 [1] [nM] | also measured
1 | CCCC#CC(=O)N(c1ccc(-c2ccccc2)cc1)C(C(=O)N[C@@H](C)c1ccccc1)c1cccnc1 (stereo partly drawn) [Jun10923, N-([1,1’-biphenyl]-4-yl)-N-(2-oxo-2-(((S)-1-phenylethyl)amino)-1-(pyridin-3-yl)ethyl)hex-2-ynamide] | 2510 | 
2 | C[C@H](NC(=O)C(c1cccnc1)N(C(=O)C#CC(C)(C)C)c1ccc(-c2ccccc2)cc1)c1ccccc1 (stereo partly drawn) [Jun10925, N-([1,1’-biphenyl]-4-yl)-4,4-dimethyl-N-(2-oxo-2-(((S)-1-phenylethyl)amino)-1-(pyridin-3-yl)ethyl)pent-2-ynamide] | > 20000 | 
3 | N-([1,1’-biphenyl]-4-yl)-2-cyano-N-((S)-2-oxo-2-(((S)-1-phenylethyl)amino)-1-(pyridin-3-yl)ethyl)acetamide [Jun10541R] |  | Ki (SARS-CoV-2 Mpro; Morrison equation fit, 20 μM FRET substrate, no preincubation): 345 nM; cytotoxicity to Calu-3 cells (Calu-3 cells): not cytotoxic; EC50 [2]: 2920 nM
4 | C#CC(=O)N(c1ccc(-c2ccccc2)cc1)C(C(=O)N[C@@H](C)c1ccccc1)c1cccnc1 (stereo partly drawn) [Jun10221R, N-([1,1’-biphenyl]-4-yl)-N-((S)-2-oxo-2-(((S)-1-phenylethyl)amino)-1-(pyridin-3-yl)ethyl)propiolamide] | 20 | 
5 | COc1ccc(/C=C(\C#N)C(=O)N(c2ccc(-c3ccccc3)cc2)C(C(=O)N[C@@H](C)c2ccccc2)c2cccnc2)cc1 (stereo partly drawn) [Jun10963S, (E)-N-([1,1’-biphenyl]-4-yl)-2-cyano-3-(4-methoxyphenyl)-N-((R)-2-oxo-2-(((S)-1-phenylethyl)amino)-1-(pyridin-3-yl)ethyl)acrylamide] | > 20000 | 
6 | COc1ccc(/C=C(\C#N)C(=O)N(c2ccc(-c3ccccc3)cc2)C(C(=O)N[C@@H](C)c2ccccc2)c2cccnc2)cc1 (stereo partly drawn) [Jun10963R, (E)-N-([1,1’-biphenyl]-4-yl)-2-cyano-3-(4-methoxyphenyl)-N-((S)-2-oxo-2-(((S)-1-phenylethyl)amino)-1-(pyridin-3-yl)ethyl)acrylamide] | 560 | Ki (SARS-CoV-2 Mpro): 573 nM

Source: article PMC10529912 (European journal of medicinal chemistry, 2023)
